What was measured:
Format in all cases: in vivo
[1] = tested on: Thrips flavus Schrank nymphs; experiment: Joint toxicity of I-72 + flonicamid, Example 78, Table 78; conditions: Thrips flavus; A = compound I-72, B = flonicamid; eggplant seedling spraying; 48 hours; read-out: LC50
Method: (§1) Test target: Thrips flavus Schrank nymphs.
(§2) Preparation of the pesticide solution: according to different test requirements, the test samples were accurately weighed respectively with an electronic analytical balance. The technical pesticides were dissolved in acetone, and then diluted with 0.1% Tween 80 water into a series of pesticide solutions with a certain concentration gradient according to the experimental design dosage.
(§3) Experimental method: first, eggplant seedlings with Thrips flavus Schrank were selected, and the base number was counted. Then, uniform spraying was performed with the pesticide solution in the order from low to high doses according to the experimental design, with 2 mL for each seedling and 3 replicates for each treatment. In addition, a blank control was set up.
(§4) The treated test materials were placed in an observation room, and the temperature, humidity and illumination of the observation room could be adjusted as needed. The number of dead and live insects was investigated 48 hours later. […] Then, the co-toxicity coefficient of each ratio was calculated using the Sun Y-P method to evaluate the mixing effect (the same as in Example 1).

[2] = tested on: 3rd-instar larvae of Ostrinia furnacalis Guenee; experiment: Joint toxicity of I-72 + lambda-cyhalothrin, Example 42, Table 42; conditions: A = compound I-72, B = lambda-cyhalothrin, corn stem dipping, 72 hours, read-out: LC50
Method: Test target: 3rd-instar larvae of Ostrinia furnacalis Guenee.
as §2
Experimental method: first, tender corn stems were selected and dipped in the prepared pesticide solution for 10 s in the order from low dosage to high dosage according to the experimental design. After natural air-drying in the shade, they were placed in a 9-cm-diameter Petri dish with filter paper, and uniform and healthy test insects were introduced, with 10 insects for each treatment and 3 replicates for each treatment. In addition, a blank control was set up.
as §4, with “72” for “48”

[3] = tested on: 3rd-instar larvae of Chilo suppressalis (Walker); experiment: Joint toxicity of I-72 + organophosphorus insecticides, rice seedling dipping, Example 15, Table 15; conditions: 3rd-instar larvae, rice seedling dipping, 48 h, A = compound I-72, B = diazinon, read-out: LC50
Summary of the method: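 Rice seedling sections dipped 10 s in acetone/0.1% Tween 80 dilutions of single agents or mixtures, air-dried and fed to lab-reared 3rd-instar larvae (10 per dish, 3 replicates). Mortality scored after 48 h, Abbott-corrected; LC50 with 95% limits by regression, and co-toxicity coefficients by the Sun Y-P method.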

[4] = tested on: Thrips flavus Schrank nymphs; experiment: Joint toxicity of I-72 + tolfenpyrad, Example 62, Table 62; conditions: A = compound I72, B = tolfenpyrad, eggplant seedling spraying, 48 hours, read-out: LC50
Method: as §1, §2, §3, §4

[5] = tested on: Aphis gossypii Glover nymphs; experiment: Joint toxicity of I-72 + spiropidion, Example 28, Table 28; conditions: Aphis gossypii; A = compound I-72, B = spiropidion; cotton leaf spraying; 48 hours; read-out: LC50
Method: Test target: Aphis gossypii Glover nymphs, a sensitive strain reared indoors.
as §2
Experimental method: first, cotton leaves with uniform and consistent Aphis gossypii were selected, with about 30-40 insects on each leaf. Then, they were evenly sprayed with the pesticide solution in the order from low dosage to high dosage according to the experimental design, with 1.5 mL for each leaf and 3 replicates for each treatment. In addition, a blank control was set up.
as §4

[6] = tested on: 3rd-instar larvae of Pyrausta nubilalis Hubern; experiment: Synergism assay (Bliss) of I-72 + abamectin, spinosad, spinetoram, emamectin benzoate, Example 6, Table 6; conditions: Ostrinia nubilalis, 72 h, read-out: Mortality rate (%)
Method: Test subject: 3rd-instar larvae of Pyrausta nubilalis Hubern, a sensitive strain reared indoors.
Test conditions: temperature: 24-26° C., humidity: RH 60%, and illumination: L:D=14:10
Preparation method: the test pesticides were accurately weighed respectively with an electronic analytical balance. After the two technical materials were respectively added into an appropriate amount of solvent and completely dissolved, the stock solution of the required concentration was prepared with water containing 0.1% Tween 80. The stock solutions of the two active ingredients were mixed in a certain ratio to prepare a mixed solution, which was then diluted respectively into a series of pesticide solutions with a certain concentration gradient according to the experimental design dosage.
Experimental method: the artificial diet-pesticide film method was adopted. A standard clean 24-well culture plate was selected. 1 ml of artificial diet was added to each well. After the diet cooled and solidified, a quantitative amount of a pesticide solution was added to the culture plate using a continuous sampler, and then it was air-dried naturally in the shade. The standard test insects were introduced, with 1 insect in each well, a total of 48 insects. The treated test insects were placed in an observation room under certain conditions. The reaction of the test insects was regularly observed, and the number of dead and live insects was investigated 72 h later.
The evaluation method adopted was the Bliss method. This method is applicable to the qualitative screening of insecticidal compositions. According to the concept of independent joint action he proposed, Bliss believes that the theoretical mortality rate P when insecticides are used in combination can be calculated by the following formula: […]
Pm is the mortality rate (%) of the target when the first active ingredient is at a concentration of m; and Pn is the mortality rate (%) of the target when the second active ingredient is at a concentration of n.
If the actual mortality rate of the target after the two active ingredients are mixed at a certain concentration is greater than theoretical mortality rate P, it is determined that the two active ingredients have a synergistic effect when used in combination at the set concentration, and otherwise, they have an antagonistic effect.

CN(C(=O)c1ccc2c(c1)OC(F)(F)O2)c1cccc(C(=O)Nc2c(Br)cc(C(F)(C(F)(F)F)C(F)(F)F)cc2OC(F)F)c1F [Compound I-72]
LC50 [1]: 1.9 µg/mL | LC50 [2]: 0.805 µg/mL | LC50 [3]: 1.76 µg/mL | LC50 [4]: 2.02 µg/mL | LC50 [5]: 3.19 µg/mL | mortality at 0.05 µg/mL ([6]; single agent 0.05 mg/L): 10.4% | mortality at 0.1 µg/mL ([6]; single agent 0.1 mg/L): 25% | mortality at 1 µg/mL ([6]; single agent 1 mg/L): 62.5% | mortality at 2 µg/mL ([6]; single agent 2 mg/L): 72.9% | mortality at 5 µg/mL ([6]; single agent 5 mg/L): 81.2%

Source: patent US20260198495A1, “BINARY INSECTICIDE COMPOSITION AND USE THEREOF” (SHENYANG SINOCHEM AGROCHEMICALS R & D CO., LTD., priority 2022, published 2026)
